Kd data for one molecule are collected here from publication PMC546160 (Nucleic Acids Research, 2005).

For experiment [1], the target named is T1, HhaI methyltransferase (M.HhaI) (Haemophilus parahaemolyticus, UniProt P05102).
T1 sequence (P05102 1-327): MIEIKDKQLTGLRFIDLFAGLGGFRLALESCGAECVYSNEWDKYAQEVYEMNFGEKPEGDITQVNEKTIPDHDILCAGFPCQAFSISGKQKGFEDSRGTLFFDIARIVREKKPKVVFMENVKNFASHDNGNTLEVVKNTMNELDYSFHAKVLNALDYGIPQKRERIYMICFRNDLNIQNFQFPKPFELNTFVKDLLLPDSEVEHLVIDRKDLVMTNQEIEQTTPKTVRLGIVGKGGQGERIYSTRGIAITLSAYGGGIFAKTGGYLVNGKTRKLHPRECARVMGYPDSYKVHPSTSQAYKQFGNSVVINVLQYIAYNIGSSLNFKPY
The experiment in a line: biochemical.

In experiment [2] the target is HhaI methyltransferase (M.HhaI) (Haemophilus parahaemolyticus, UniProt P05102, W41I). The experiment in a line: biochemical.

Take `C[S+](CC[C@H](N)C(=O)O)C[C@H]1O[C@@H](n2cnc3c(N)ncnc32)[C@H](O)[C@@H]1O` (some centres unmarked) [AdoMet]: the Kd in experiment [1] was 4.4 µM; in experiment [2] it was 14 µM.

A word on the Kd: it is the concentration at which binding is half-saturated.
